Source: patent US20200030263A1, “METHODS AND COMPOSITIONS FOR PROMOTING WOUND HEALING WITH DECREASED SCAR FORMATION AFTER GLAUCOMA FILTRATION SURGERY” (United States Government as Represented by the Department …, priority 2017, published 2020)

How the values were obtained:
[1] = system: rabbit model of glaucoma filtration surgery; experiment: Rabbit model of glaucoma filtration surgery (GFS): clinical evaluation of bleb, vascularity, IOP and tolerability; type: in vivo; conditions: for bleb appearance (biomicroscopy): day 3, 7, 14 after GFS, compared to flat and scarred blebs in no treatment control; for bleb area compared to untreated controls / bleb length compared to untreated controls: day 3, 7 and 14 after GFS; for bleb area compared to untreated controls: SAHA p<0.05, MMC p<0.01; for bleb length compared to untreated controls: p<0.001; for bleb vascularity score / intraocular pressure: day 7 and day 14 after GFS; for bleb vascularity score: versus no treatment control; for intraocular pressure: versus no-treatment control
Protocol: (§1) Briefly, a rabbit model of glaucoma filtration surgery (GFS) was used. Rabbits underwent GFS received Balanced Salt Solution (BSS) or SAHA (50 μM) or mitomycin C (MMC; 0.04% (w/v)). Clinical scores of intraocular pressure (TOP), bleb vascularity and slit lamp examination were performed. On postoperative day 14, rabbits were sacrificed and the bleb tissues were collected for evaluation of tissue fibrosis with H&E, Masson trichrome (MT), α-smooth muscle actin (α-SMA), and F-actin staining. Further, SAHA-mediated acetylation of histones in corneal fibroblasts and conjunctiva were determined by western blot analysis.
A 10 mM stock solution of SAHA (Cayman Chemical Company, Ann Arbor, Mich., USA) was prepared by dissolving in dimethyl sulfoxide (DMSO) and then further diluted to 50 μM with balanced salt solution (BSS) eye drops (Alcon). For vehicle control, the same volume of DMSO was diluted with BSS. The 0.04% MMC stock solution was prepared in BSS and 0.02% final dose of MMC was given to rabbits. The rabbits were divided into three treatment groups. Groups I rabbits received 100 μl subconjunctival injection of vehicle 30 minutes before the GFS surgery and group II rabbits received 100 μl subconjunctival injection of 50 μM SAHA solution 30 minutes before GFS. Group III rabbits were injected with 100 μl subconjunctival solution of 0.02% MMC 30 minutes before surgery.
Clinical evaluation was performed to check the intraocular pressure (TOP), general appearance and vascularity of the bleb. All these clinical parameters were recorded before the surgery to obtain the baseline values and on days 3, 5, 7, 10 and 14 after surgery. To measure TOP, tonometry was performed using an applanation tonometer (Tono-pen) with animals under topical anesthesia. Bleb's size was graded by measuring its width and length. Bleb vascularity was graded as 0=avascular; 1=normal vascularity; 2=hyperemic; 3=very hyperemic. Anterior chamber inflammation was assessed by slit lamp examination and graded 0=no inflammation; 1=cells present; 2=fibrin formation; 3=hypopyon present.
(§2) The results are expressed as mean±SEM. The data for bleb length, area, vascularity and IOP were analyzed by two way ANOVA and Bonferroni test using GraphPad Prism 6.0 (GraphPad Software, Inc., La Jolla, Calif.) and p<0.05 was considered to be statistical significant. The immunostaining data was analyzed using a t-test.

[2] = system: site of sclerotomy in rabbit eyes after glaucoma filtration surgery; type: in vivo; conditions: for DAPI nuclear staining of conjunctival epithelium at site of sclerostomy: rabbit, in vivo
Protocol: as §1
On postoperative day 14, rabbits were humanely euthanized with pentobarbital (150 mg/kg) under general anesthesia. The eyes were enucleated together with the conjunctiva to preserve the bleb and snap frozen in optimal cutting temperature fluid. The tissues were sectioned and stained with hematoxylin and eosin. Masson's trichrome staining was performed to stain collagen. Immunofluorescence staining for f-actin (a marker for activated fibroblasts and myofibroblasts) was performed using Alexa Fluor® 594-conjugated phalloidin (1:40 dilution, A12381, Invitrogen Inc., Carlsbad, Calif.). Immunofluorescence staining for α-smooth muscle actin (αSMA), a marker for myofibroblasts, was performed with mouse monoclonal primary αSMA antibody (1:100 dilution, M0851; Dako, Carpinteria, Calif.). Tissue sections were incubated with 2% bovine serum albumin for 30 minutes at room temperature and then with αSMA monoclonal antibody for 90 minutes. For detection of the primary antibody, the sections were exposed to Alexa 488 goat anti-mouse IgG secondary antibody (1:500 dilution, A11001; Invitrogen Inc.) for 1 hour. The tissue sections at the site of sclerotomy and the sections on every sixth tissue slide on the either side of the sclerotomy were stained for f-actin and αSMA. After completion of immunostaining, tissue sections were mounted in medium containing DAPI (Vectashield; Vector Laboratories, Inc. Burlingame, Calif.), viewed, and photographed under a fluorescence microscope (Leica, Deerfield, Ill.) equipped with a digital camera system (SpotCam RT KE; Diagnostic Instruments, Sterling, Mich.). The stained areas in the imaged slides were quantified using Image J software.
as §2

[3] = system: corneal haze in rabbits produced with −9.0 diopter PRK; experiment: Corneal haze after −9.0 diopter PRK in rabbits: efficacy (slit-lamp haze score, αSMA immunofluorescence); type: in vivo, rabbit; conditions: for Haze score: at 4-months after PRK, Fantes scale, single topical SAHA 25 μM 5 min or MMC 0.02% 1 min, BSS 2.7±0.4; for post-PRK corneal haze compared to no-drug treated corneas: single topical application, p<0.001
Excerpt: Photorefractive keratectomy was used to produce corneal haze in rabbits by performing −9.0 diopter ablation with the Summit Apex excimer laser (Model: SVS APEX Plus ER; Alcon, Ft. Worth, Tex.) as reported previously. Briefly, the rabbits were anesthetized and local anesthesia of the cornea was achieved through the application of topical ophthalmic 0.5% proparacaine hydrochloride (Alcon, Fort Worth, Tex.). A wire lid speculum was placed and corneal epithelium was removed by gentle scraping with surgical Beaver blade #64 (BD Biosciences, Franklin Lakes, N.J.). […] Only one eye of each animal was used for experimentation.
A 10 mM stock solution of SAHA (Cayman Chemical Company, Ann Arbor, Mich., USA) was prepared using dimethyl sulfoxide (DMSO), and diluted to 25 μM with balanced salt solution (BSS) eye drops (Alcon). For vehicle control, the same volume of DMSO was diluted with BSS. […] After PRK, rabbits were divided into 3 groups: Group-1 received a single topical application of SAHA (25 μM) for 5 minutes (n=15), Group-2 received a single topical application of MMC (0.02%) for 1 minute (n=15) and Group-3 received a single topical application of vehicle for 5 minutes (n=15). Thereafter, eyes were washed profusely with BSS. The contralateral eye served as naive control. All rabbits received clinical eye examination.
Rabbits from each group were euthanatized 3-days (n=3), 1-month (n=6), and 4-months (n=6) after PRK. Corneas were snap frozen, sectioned (7 mm), and stored at −80° C. Immunofluorescence was used to detect myofibroblast marker αSMA using monoclonal antibody (M0851; Dako, Calif.). […] Sections were viewed and photographed under a fluorescence microscope (Leica, Deerfield, Ill.) equipped with a digital camera system (SpotCam RT KE; Diagnostic Instruments, MI).

[4] = system: rabbit corneal endothelial cells and keratocytes after −9D PRK; experiment: Rabbit PRK model: in vivo safety (specular microscopy, DAPI, TUNEL)
Protocol: Briefly, corneal haze in rabbits was produced with −9.0 diopter PRK. A single application of SAHA (25 μM) or MMC (0.02%) was applied topically immediately after PRK. Effects of the two drugs were analyzed by slit-lamp microscope, specular microscope, TUNEL assay, and immunofluorescence.
(§3) A 10 mM stock solution of SAHA (Cayman Chemical Company, Ann Arbor, Mich., USA) was prepared using dimethyl sulfoxide (DMSO), and diluted to 25 μM with balanced salt solution (BSS) eye drops (Alcon). For vehicle control, the same volume of DMSO was diluted with BSS. The 0.02% Mitomycin C solution was prepared at the Harry S. Truman VA Hospital Pharmacy, Columbia, Mo. using 5 mg/ml powder (Accord Healthcare, Inc., Durham, N.C., USA) diluted with sterile normal saline. This solution was stable for 1 week at room temperature but was used within 48 hours after preparation. After PRK, rabbits were divided into 3 groups: Group-1 received a single topical application of SAHA (25 μM) for 5 minutes (n=15), Group-2 received a single topical application of MMC (0.02%) for 1 minute (n=15) and Group-3 received a single topical application of vehicle for 5 minutes (n=15). Thereafter, eyes were washed profusely with BSS. The contralateral eye served as naive control. All rabbits received clinical eye examination.
Slit-lamp (SL15, Kowa, Japan), stereo (MZ16F, Leica, Switzerland) and specular (NSP-8800, Konan, Japan) microscopes were used to evaluate ocular health, corneal haze, and corneal endothelial cells in anesthetized animals. Grading of clinical corneal haze was done using Fantes scale by three researchers (AS, MW and SG) in a masked manner. High performance digital imaging system (VK2; Kowa Tokyo, Japan) was used for corneal image analysis.
Rabbits from each group were euthanatized 3-days (n=3), 1-month (n=6), and 4-months (n=6) after PRK. Corneas were snap frozen, sectioned ([…]), and stored at −80° C. Immunofluorescence was used to detect myofibroblast marker αSMA using monoclonal antibody (M0851; Dako, Calif.). TUNEL assay (ApopTag, 57165; Billerica, Mass.) detected apoptosis and DAPI-stained nuclei determined cellular density. Sections were viewed and photographed under a fluorescence microscope (Leica, Deerfield, Ill.) equipped with a digital camera system (SpotCam RT KE; Diagnostic Instruments, MI).
Stained proteins in corneal sections were quantified using Image J software in six randomly selected areas. Standard error means were calculated. One-way ANOVA and Wilcoxon rank sum test were used for statistical analysis. The p value <0.05 was considered significant.

[5] = Stability of 0.02% Mitomycin C solution; type: physicochemical; conditions: 0.02% solution in sterile normal saline, room temperature
Protocol: as §3

[6] = system: human corneal endothelial cells; conditions: cited from earlier work
[7] = system: acetylation of Histone H3 and H4 in human corneal fibroblast cells; experiment: Western blot of acetylated histones in human corneal fibroblast cells; type: cell-based; conditions: SAHA 2.5 μM
Protocol: (§4) Rabbits were received 100 μl subconjunctival injection of 50 μM SAHA. Cell lysates were prepared from human corneal fibroblast cells treated with SAHA (2.5 μM) at 0, 2, 4, 6, 16 and 24 hours. Rabbit conjunctival tissues were harvested at 0, 2, 6 and 24 hour time points. Cell and tissue lysates were analyzed by western blotting using anti-acetyl Histone H3, anti-acetyl histone H4 (Cell Signaling, Beverly, Mass., USA) and (3-actin (Santa Cruz biotechnology Inc., Dallas, Tex., USA) antibodies respectively. All western blots for each protein were used 3 rabbit tissues and repeated at least two times. Digital quantification of western blots was performed using NIH Image J software and Image Studio software Version 5.2

[8] = system: acetylation of Histone H3 and H4 in rabbit conjunctiva tissue; experiment: Western blot of acetylated histones in rabbit conjunctiva after subconjunctival injection; type: in vivo; conditions: 100 μl subconjunctival 50 μM SAHA
Protocol: as §4

[9] = system: cultured corneal fibroblasts; conditions: 50 μM or higher dose of SAHA; earlier studies; cited from earlier work
[10] = system: cultured rabbit, equine, canine and human corneal fibroblasts; conditions: previous studies from the lab; cited from earlier work
[11] = in vivo; cited from earlier work
[12] = day 14 after GFS, versus no-treatment control
[13] = prophylactic MMC 0.02%, 10-50 seconds, nonrandomized controlled trial

CO[C@@]12[C@H](COC(N)=O)C3=C(C(=O)C(C)=C(N)C3=O)N1C[C@@H]1N[C@@H]12 [MMC, mitomycin C]
bleb appearance (biomicroscopy) [1]: elevated blebs but these blebs had a thin, avascular and cystic appearance
bleb area compared to untreated controls [1]: significantly higher
bleb length compared to untreated controls [1]: significantly higher
bleb vascularity score [1]: very robust decrease
intraocular pressure [1]: lower TOP compared to the no-treatment control eyes but the results were not statistically significant
bleb vascularity by day 14 ([1]; day 14 after GFS): completely avascular
ocular adverse findings on clinical evaluation ([1]; rabbit eyes after GFS, SAHA 50 μM or MMC 0.02% subconjunctival): corneal neovascularization and opacity
f-actin stained area (activated fibroblasts and myofibroblasts) [2, 12]: very robust decrease
αSMA stained area (myofibroblasts) [2, 12]: very robust decrease
DAPI nuclear staining of conjunctival epithelium at site of sclerostomy [2]: discontinuous and highly sparse DAPI nuclear staining
Haze score [3]: 0.85±0.15
post-PRK corneal haze compared to no-drug treated corneas [3]: significantly decreased
corneal endothelial cell phenotype and density ([4]; 1-month after PRK): significantly compromised endothelial cell phenotype and density
apoptosis (TUNEL+ cells in stroma and endothelium) ([4]; 1-month and 4-months): many TUNEL+ cells in the stroma and endothelium
keratocyte number and density in stroma (DAPI-staining) ([4]; 1-month and 4-months post-PRK): significant keratocyte loss
corneal endothelial cell phenotype and density ([4]; 4-months after PRK): still had compromised endothelial cells
apoptosis (TUNEL assay) ([4]; corneas collected at 3-days): significant apoptosis in epithelial and keratocyte cells
stability of solution [5]: 1 week
qualitative morphometric parameters or quantitative endothelial cell density ([6]; 0.02% MMC topically for 12 seconds and 40 seconds following PRK, other studies): did not have a significant effect
corneal endothelial cells [6, 13]: significant loss of corneal endothelial cells
haze formation after PRK [6, 13]: inhibited haze formation

O=C(CCCCCCC(=O)Nc1ccccc1)NO [SAHA, suberoylanilide hydroxamic acid]
bleb appearance (biomicroscopy) [1]: transparent and elevated blebs
bleb area compared to untreated controls [1]: significantly higher
bleb length compared to untreated controls [1]: significantly higher
bleb vascularity score [1]: significantly (p<0.01) attenuated
intraocular pressure [1]: lower TOP compared to the no-treatment control eyes but the results were not statistically significant
Masson trichrome staining: collagen deposits at site of sclerotomy [2, 12]: less collagen deposits
f-actin stained area (activated fibroblasts and myofibroblasts) [2, 12]: significant decrease
αSMA stained area (myofibroblasts) [2, 12]: significant decrease
H&E staining: fibrous deposit at site of sclerotomy ([2]; day 14 after GFS, control densely packed with fibrous tissue): mild fibrous deposit and a loosely arranged conjunctival tissue
DAPI nuclear staining of conjunctival epithelium at site of sclerostomy [2]: continuous and uniform conjunctival epithelium
time of maximum histone H3 and H4 acetylation [7]: 6 h
acetylation status of histone H3 and H4 ([7]; 0, 2, 4, 6, 16 and 24 hours): increase the acetylation status of histone H3 and H4
time of maximum histone H3 and H4 acetylation [8]: 6 h
acetylation status of histone H3 and H4 ([8]; 0, 2, 6 and 24 hour): increase the acetylation status of histone H3 and H4
Haze score [3]: 0.9±0.1
post-PRK corneal haze compared to no-drug treated corneas [3]: significantly decreased
apoptosis (TUNEL assay) ([4]; rabbit, in vivo): did not induce apoptosis in any cell type
keratocyte number and density in stroma (DAPI-staining) ([4]; rabbit, in vivo): did not reduce number or density of keratocytes
cellular viability of cultured corneal fibroblasts [9]: did not decrease cellular viability
differentiation of corneal fibroblasts to myofibroblasts [10]: capable of inhibiting differentiation
plasma half-life [11]: short
